Assay results published in ChEMBL document CHEMBL1759950, “Design, synthesis and cytotoxic activities of novel β-amino alcohol derivatives” (Bioorg Med Chem Lett, 2011).

Assays:
Format in all cases: functional, cell-based
MCF7 = test: Cytotoxicity against human MCF7 cells by MTT assay
SW480 = test: Cytotoxicity against human SW480 cells by MTT assay
SMMC-7721 = test: Cytotoxicity against human SMMC7721 cells by MTT assay
HL-60 = test: Cytotoxicity against human HL60 cells by MTT assay
A549 = test: Cytotoxicity against human A549 cells by MTT assay

| Compound | IC50 (MCF7) | IC50 (SW480) | IC50 (SMMC-7721) | IC50 (HL-60) | IC50 (A549) |
| --- | --- | --- | --- | --- | --- |
| OC[C@H](Cc1c[nH]c2ccccc12)NCc1c2ccccc2cc2ccccc12 | > 40 µM | > 40 µM | > 40 µM | > 40 µM | > 40 µM |
| CC(C)(O)[C@H](Cc1c[nH]c2ccccc12)NCc1c2ccccc2cc2ccccc12 | 12.5 µM | 11.7 µM | 13.4 µM | 9.55 µM | 11 µM |
| CCC(O)(CC)[C@H](Cc1c[nH]c2ccccc12)NCc1c2ccccc2cc2ccccc12 | 24.3 µM | > 40 µM | 13 µM | 12.2 µM | 11.6 µM |
| CCCC(O)(CCC)[C@H](Cc1c[nH]c2ccccc12)NCc1c2ccccc2cc2ccccc12 | 23.9 µM | > 40 µM | 17.3 µM | 13.2 µM | 10.9 µM |
| CCCCC(O)(CCCC)[C@H](Cc1c[nH]c2ccccc12)NCc1c2ccccc2cc2ccccc12 | > 40 µM | > 40 µM | > 40 µM | > 40 µM | > 40 µM |
| Cn1cc(C[C@@H](CO)NCc2c3ccccc3cc3ccccc23)c2ccccc21 | 16.6 µM | 13.5 µM | 15 µM | 4.48 µM | 16.5 µM |
| Cn1cc(C[C@H](NCc2c3ccccc3cc3ccccc23)C(C)(C)O)c2ccccc21 | 15.2 µM | 15.1 µM | 15.5 µM | 4.78 µM | 11.8 µM |
| CCC(O)(CC)[C@H](Cc1cn(C)c2ccccc12)NCc1c2ccccc2cc2ccccc12 | > 40 µM | > 40 µM | > 40 µM | > 40 µM | > 40 µM |
| CCCC(O)(CCC)[C@H](Cc1cn(C)c2ccccc12)NCc1c2ccccc2cc2ccccc12 | > 40 µM | > 40 µM | > 40 µM | > 40 µM | > 40 µM |
| CCCCC(O)(CCCC)[C@H](Cc1cn(C)c2ccccc12)NCc1c2ccccc2cc2ccccc12 | > 40 µM | > 40 µM | > 40 µM | > 40 µM | > 40 µM |
| CCn1cc(C[C@@H](CO)NCc2c3ccccc3cc3ccccc23)c2ccccc21 | 14.9 µM | 17.4 µM | 17.1 µM | 6.18 µM | 16.5 µM |
| CCn1cc(C[C@H](NCc2c3ccccc3cc3ccccc23)C(C)(C)O)c2ccccc21 | 13.9 µM | 17.6 µM | 13.6 µM | 5.44 µM | 15 µM |
| CCn1cc(C[C@H](NCc2c3ccccc3cc3ccccc23)C(O)(CC)CC)c2ccccc21 | > 40 µM | > 40 µM | > 40 µM | > 40 µM | > 40 µM |
| CCCC(O)(CCC)[C@H](Cc1cn(CC)c2ccccc12)NCc1c2ccccc2cc2ccccc12 | > 40 µM | > 40 µM | > 40 µM | > 40 µM | > 40 µM |
| CCCCC(O)(CCCC)[C@H](Cc1cn(CC)c2ccccc12)NCc1c2ccccc2cc2ccccc12 | > 40 µM | > 40 µM | > 40 µM | > 40 µM | > 40 µM |
| CC(=O)N(Cc1c2ccccc2cc2ccccc12)[C@H](CO)Cc1c[nH]c2ccccc12 | 16.1 µM | 17.3 µM | 14.1 µM | 3.64 µM | 15.2 µM |
| CC(=O)N(Cc1c2ccccc2cc2ccccc12)[C@@H](Cc1c[nH]c2ccccc12)C(C)(C)O | 15.6 µM | 17.2 µM | 12 µM | 6.49 µM | 14.5 µM |
| O=C(c1ccccc1)N(Cc1c2ccccc2cc2ccccc12)[C@H](CO)Cc1c[nH]c2ccccc12 | 17.4 µM | 30.7 µM | 20.7 µM | 7.03 µM | 13.2 µM |
| CC(C)(O)[C@H](Cc1c[nH]c2ccccc12)N(Cc1c2ccccc2cc2ccccc12)C(=O)c1ccccc1 | > 40 µM | > 40 µM | > 40 µM | > 40 µM | > 40 µM |
